According to the supplement of paper PMC10307832:

How the values were obtained:
Test in all cases: relative viability (nuclei count vs DMSO), 5 days (fraction); higher = more cells survive
[1] = compound: COC1=CC(c2cc3ccccc3[nH]2)=N/C1=C\c1[nH]c(C)cc1C [Obatoclax] + COc1cc2c(Oc3ccc(NC(=O)C4(C(=O)Nc5ccc(F)cc5)CC4)cc3F)ccnc2cc1OCCCN1CCOCC1 [Foretinib] (partner 0.25 µM)
Method in brief: (§1)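 Relative viability is defined as nuclei in treated wells over nuclei in vehicle wells. Duplicate plates were run and medians reported. Lung cancer cell lines in 1536-well plates were dosed by pin tool one day after seeding, with one drug or with a fixed anchor-drug dose plus five library-drug doses (not always all listed) in √10 steps, and nuclei were counted after 5 days.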

[2] = compound: COC1=CC(c2cc3ccccc3[nH]2)=N/C1=C\c1[nH]c(C)cc1C [Obatoclax] + CS(=O)(=O)CCNCc1ccc(-c2ccc3ncnc(Nc4ccc(OCc5cccc(F)c5)c(Cl)c4)c3c2)o1 [Lapatinib] (partner 2 µM)
Method in brief: as §1

[3] = compound: COC1=CC(c2cc3ccccc3[nH]2)=N/C1=C\c1[nH]c(C)cc1C [Obatoclax] + NC(=O)Nc1cc(-c2cccc(F)c2)sc1C(=O)N[C@H]1CCCNC1 [AZD7762] (partner 0.2 µM)
Method in brief: as §1

[4] = compound: COC1=CC(c2cc3ccccc3[nH]2)=N/C1=C\c1[nH]c(C)cc1C [Obatoclax] + O=C(CCCCCCC(=O)Nc1ccccc1)NO [Vorinostat] (partner 1 µM)
Method in brief: as §1

Cell Line	relative viability ([1]; first compound 0.01 µM)	relative viability ([1]; first compound 0.03162 µM)	relative viability ([1]; first compound 0.1 µM)	relative viability ([1]; first compound 0.3162 µM)	relative viability ([1]; first compound 1 µM)	relative viability ([2]; first compound 0.01 µM)	relative viability ([2]; first compound 0.03162 µM)	relative viability ([2]; first compound 0.1 µM)	relative viability ([2]; first compound 0.3162 µM)	relative viability ([2]; first compound 1 µM)	relative viability ([3]; first compound 0.01 µM)	relative viability ([3]; first compound 0.03162 µM)	relative viability ([3]; first compound 0.1 µM)	relative viability ([3]; first compound 0.3162 µM)	relative viability ([3]; first compound 1 µM)	relative viability ([4]; first compound 0.01 µM)	relative viability ([4]; first compound 0.03162 µM)	relative viability ([4]; first compound 0.1 µM)	relative viability ([4]; first compound 0.3162 µM)	relative viability ([4]; first compound 1 µM)
HCC-827	1.01	1.04	1.08	0.964	1.05	0.183	0.195	0.226	0.229	0.271	0.244	0.234	0.215	0.202	0.261	0.879	0.726	0.711	0.25	0.82
HOP-62	1.16	0.933	1.11	1.04	1.06	0.963	0.909	0.976	1.04	1.05	0.402	0.519	0.515	0.59	0.508	0.573	0.575	0.639	0.741	0.403
LC-2-ad	0.997	0.876	0.869	0.897	0.525	0.977	0.906	0.802	0.817	0.867	0.857	0.888	0.777	0.836	0.438	0.677	0.669	0.647	0.658	0.445
LCLC-97TM1	0.996	0.954	0.873	0.872	0.9	0.835	0.936	1.3	0.906	1.21	0.218	–	0.203	0.229	0.206	0.633	0.792	0.77	0.589	0.494
LK-2	1.12	1.28	1.51	1.26	1.11	0.994	0.838	0.915	0.886	0.805	0.456	0.374	0.444	–	0.568	0.3	0.247	0.253	0.296	0.411
LOU-NH91	0.918	0.917	0.787	0.904	0.819	0.826	0.73	0.669	0.603	0.59	0.703	0.717	0.646	0.667	0.539	0.982	0.889	0.709	0.885	0.65
LU99A	0.875	0.792	0.774	0.619	0.714	0.997	0.922	0.914	0.255	0.196	0.379	0.359	–	0.146	0.135	0.557	0.459	–	0.463	0.224
LXF-289	0.91	0.988	1.05	0.932	1.02	0.893	0.903	0.934	0.832	0.624	1.03	1.07	1.14	1.1	1.09	0.714	0.725	0.798	0.775	0.601
NCI-H23	1.04	1	0.986	0.826	1.01	1.13	1.23	0.805	0.619	0.458	0.271	0.313	0.192	0.219	0.158	0.593	0.755	0.569	0.653	0.316
